The record followed here is ChEMBL document CHEMBL5653631, “A Potent and Selective ULK1 Inhibitor Suppresses Autophagy and Sensitizes Cancer Cells to Nutrient Stress” (iScience, 2018).

The target in test [1] is T1, MAP kinase-activated protein kinase 5 (Homo sapiens) (UniProt Q8IW41).
T1 sequence (whole entry): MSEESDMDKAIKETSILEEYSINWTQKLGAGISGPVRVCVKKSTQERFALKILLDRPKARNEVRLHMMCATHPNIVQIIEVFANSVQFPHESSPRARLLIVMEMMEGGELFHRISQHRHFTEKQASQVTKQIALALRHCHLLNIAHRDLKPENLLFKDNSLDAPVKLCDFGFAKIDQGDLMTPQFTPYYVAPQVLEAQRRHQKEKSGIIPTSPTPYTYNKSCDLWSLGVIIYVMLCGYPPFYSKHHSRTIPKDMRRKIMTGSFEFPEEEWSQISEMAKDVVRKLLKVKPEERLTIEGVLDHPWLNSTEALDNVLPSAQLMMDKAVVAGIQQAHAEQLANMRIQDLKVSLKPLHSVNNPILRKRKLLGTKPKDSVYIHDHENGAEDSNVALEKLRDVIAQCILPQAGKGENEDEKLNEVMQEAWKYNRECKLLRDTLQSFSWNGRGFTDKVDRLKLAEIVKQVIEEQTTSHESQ
The test can be described thus: Inhibition of human recombinant MAPKAPK5 at 15 nM in presence of ATP by radiometric assay relative to control.

Test [2] deals with Mitogen-activated protein kinase 1 (Homo sapiens) (UniProt P28482). The test can be described thus: Inhibition of human recombinant Erk2 at 15 nM related to control ULK1.
The target of test [3] is T2, Mitogen-activated protein kinase kinase kinase kinase 2 (Homo sapiens) (UniProt Q12851).
T2 sequence (whole entry): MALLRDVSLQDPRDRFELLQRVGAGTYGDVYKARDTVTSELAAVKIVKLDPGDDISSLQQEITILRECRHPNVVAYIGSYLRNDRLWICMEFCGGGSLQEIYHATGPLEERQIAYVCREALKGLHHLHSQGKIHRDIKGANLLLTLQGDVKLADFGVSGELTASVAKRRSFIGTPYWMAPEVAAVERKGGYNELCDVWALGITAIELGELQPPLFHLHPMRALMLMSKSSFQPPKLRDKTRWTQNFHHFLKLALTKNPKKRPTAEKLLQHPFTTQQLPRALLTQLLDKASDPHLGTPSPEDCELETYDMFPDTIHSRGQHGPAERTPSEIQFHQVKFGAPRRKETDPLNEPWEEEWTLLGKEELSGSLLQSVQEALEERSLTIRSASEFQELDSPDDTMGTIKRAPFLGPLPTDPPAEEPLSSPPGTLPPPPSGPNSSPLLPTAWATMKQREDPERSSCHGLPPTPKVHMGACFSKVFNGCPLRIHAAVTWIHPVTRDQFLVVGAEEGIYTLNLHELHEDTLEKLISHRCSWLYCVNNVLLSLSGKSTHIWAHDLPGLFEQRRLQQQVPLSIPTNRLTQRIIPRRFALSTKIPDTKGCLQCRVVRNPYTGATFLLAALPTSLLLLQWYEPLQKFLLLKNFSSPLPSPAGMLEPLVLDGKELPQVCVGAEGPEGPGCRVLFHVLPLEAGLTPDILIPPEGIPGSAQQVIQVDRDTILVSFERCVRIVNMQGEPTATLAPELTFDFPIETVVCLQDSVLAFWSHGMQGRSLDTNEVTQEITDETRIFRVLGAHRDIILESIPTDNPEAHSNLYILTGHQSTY
As to the kind of experiment: Inhibition of human recombinant GCK at 15 nM in presence of ATP by radiometric assay relative to control.

Test [4] concerns the target Dual specificity protein kinase CLK2 (Homo sapiens) (UniProt P49760). As to the kind of experiment: Inhibition of human recombinant CLK2 at 40 nM related to control ULK1.
Test [5] has as its target Transcription initiation factor TFIID subunit 1-like (Homo sapiens) (UniProt Q8IZX4). As to the kind of experiment: Inhibition of human recombinant TAF1L at 500 nM in presence of ATP by radiometric assay relative to control.
Test [6] addresses Calcium/calmodulin-dependent protein kinase type 1D (Homo sapiens) (UniProt Q8IU85). The test can be described thus: Inhibition of human recombinant CaMK1d at 500 nM related to control ULK1.
Test [7] deals with T3, Serine/threonine-protein kinase ICK (Homo sapiens) (UniProt Q9UPZ9).
T3 sequence (whole entry): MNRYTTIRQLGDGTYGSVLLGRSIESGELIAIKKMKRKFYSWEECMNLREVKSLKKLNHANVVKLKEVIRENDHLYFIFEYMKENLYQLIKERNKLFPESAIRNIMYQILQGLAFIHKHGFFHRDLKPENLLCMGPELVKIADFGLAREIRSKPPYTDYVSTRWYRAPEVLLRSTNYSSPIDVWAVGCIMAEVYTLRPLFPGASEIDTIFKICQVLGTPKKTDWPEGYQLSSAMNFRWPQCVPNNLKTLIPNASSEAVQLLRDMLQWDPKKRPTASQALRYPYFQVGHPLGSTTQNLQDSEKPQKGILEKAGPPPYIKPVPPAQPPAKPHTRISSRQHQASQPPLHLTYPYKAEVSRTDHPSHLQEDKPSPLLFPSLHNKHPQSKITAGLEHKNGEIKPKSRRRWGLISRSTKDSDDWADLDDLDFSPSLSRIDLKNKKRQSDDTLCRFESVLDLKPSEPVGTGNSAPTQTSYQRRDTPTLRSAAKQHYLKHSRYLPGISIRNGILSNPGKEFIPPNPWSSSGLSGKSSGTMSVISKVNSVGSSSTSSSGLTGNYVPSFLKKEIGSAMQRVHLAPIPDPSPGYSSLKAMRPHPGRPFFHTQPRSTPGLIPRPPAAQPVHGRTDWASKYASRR
As to the kind of experiment: Inhibition of human recombinant ICK at 500 nM related to control ULK1.

In test [8] the target is Serine/threonine-protein kinase 32B (Homo sapiens) (UniProt Q9NY57). The test can be described thus: Inhibition of human recombinant YANK2 at 500 nM related to control ULK1.
Test [9] addresses T4, Serine/threonine-protein kinase Sgk2 (Homo sapiens) (UniProt Q9HBY8).
T4 sequence (whole entry): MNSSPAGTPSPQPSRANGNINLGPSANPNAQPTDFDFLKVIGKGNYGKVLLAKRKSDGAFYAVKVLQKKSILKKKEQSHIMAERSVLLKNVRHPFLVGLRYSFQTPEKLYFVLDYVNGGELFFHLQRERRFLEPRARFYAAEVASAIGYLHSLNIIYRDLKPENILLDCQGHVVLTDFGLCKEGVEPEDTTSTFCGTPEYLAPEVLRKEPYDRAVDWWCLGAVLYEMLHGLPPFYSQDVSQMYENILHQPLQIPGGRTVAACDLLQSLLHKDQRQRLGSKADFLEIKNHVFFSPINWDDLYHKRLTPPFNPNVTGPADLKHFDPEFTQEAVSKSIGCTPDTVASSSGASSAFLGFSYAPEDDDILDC
As to the kind of experiment: Inhibition of human recombinant SGK2 at 500 nM related to control ULK1.

Chain of Dual specificity protein kinase CLK2 (Homo sapiens) (P49760 whole entry, looked up): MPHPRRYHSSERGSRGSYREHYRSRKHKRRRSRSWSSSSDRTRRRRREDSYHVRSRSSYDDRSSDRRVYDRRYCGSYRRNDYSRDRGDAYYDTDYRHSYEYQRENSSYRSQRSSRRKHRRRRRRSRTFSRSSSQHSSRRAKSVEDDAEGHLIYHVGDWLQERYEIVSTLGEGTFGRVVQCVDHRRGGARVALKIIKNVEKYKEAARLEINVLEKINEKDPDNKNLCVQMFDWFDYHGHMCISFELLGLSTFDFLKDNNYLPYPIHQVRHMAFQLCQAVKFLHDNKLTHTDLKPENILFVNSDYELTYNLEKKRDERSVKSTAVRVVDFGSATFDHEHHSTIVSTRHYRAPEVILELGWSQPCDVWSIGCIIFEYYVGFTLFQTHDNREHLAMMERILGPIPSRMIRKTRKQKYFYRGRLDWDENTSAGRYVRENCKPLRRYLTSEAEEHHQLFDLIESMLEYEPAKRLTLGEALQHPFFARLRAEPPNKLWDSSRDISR
Chain of Mitogen-activated protein kinase 1 (Homo sapiens) (P28482 whole entry): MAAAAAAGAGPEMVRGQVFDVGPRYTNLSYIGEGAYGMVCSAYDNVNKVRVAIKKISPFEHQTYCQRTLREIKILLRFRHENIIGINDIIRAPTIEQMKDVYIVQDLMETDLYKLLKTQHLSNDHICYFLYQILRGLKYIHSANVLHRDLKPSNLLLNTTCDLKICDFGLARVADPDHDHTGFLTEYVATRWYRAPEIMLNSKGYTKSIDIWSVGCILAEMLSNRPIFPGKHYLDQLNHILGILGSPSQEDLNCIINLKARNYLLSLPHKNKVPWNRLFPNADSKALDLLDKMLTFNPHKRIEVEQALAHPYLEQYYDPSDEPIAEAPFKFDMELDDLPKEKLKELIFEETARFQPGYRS
Chain of Serine/threonine-protein kinase 32B (Homo sapiens) (Q9NY57 whole entry): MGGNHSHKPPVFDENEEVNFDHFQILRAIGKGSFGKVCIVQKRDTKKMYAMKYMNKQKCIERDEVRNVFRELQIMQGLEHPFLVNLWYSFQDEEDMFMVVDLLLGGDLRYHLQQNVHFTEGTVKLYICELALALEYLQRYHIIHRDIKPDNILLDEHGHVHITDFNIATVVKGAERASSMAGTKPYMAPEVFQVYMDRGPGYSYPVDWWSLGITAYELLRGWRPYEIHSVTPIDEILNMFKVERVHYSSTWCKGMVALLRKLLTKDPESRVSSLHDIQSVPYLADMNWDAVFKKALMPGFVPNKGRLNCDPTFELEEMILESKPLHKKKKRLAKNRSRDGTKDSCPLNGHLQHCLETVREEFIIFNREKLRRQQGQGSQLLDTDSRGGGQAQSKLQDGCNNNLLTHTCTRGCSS
Chain of Calcium/calmodulin-dependent protein kinase type 1D (Homo sapiens) (Q8IU85 whole entry, looked up): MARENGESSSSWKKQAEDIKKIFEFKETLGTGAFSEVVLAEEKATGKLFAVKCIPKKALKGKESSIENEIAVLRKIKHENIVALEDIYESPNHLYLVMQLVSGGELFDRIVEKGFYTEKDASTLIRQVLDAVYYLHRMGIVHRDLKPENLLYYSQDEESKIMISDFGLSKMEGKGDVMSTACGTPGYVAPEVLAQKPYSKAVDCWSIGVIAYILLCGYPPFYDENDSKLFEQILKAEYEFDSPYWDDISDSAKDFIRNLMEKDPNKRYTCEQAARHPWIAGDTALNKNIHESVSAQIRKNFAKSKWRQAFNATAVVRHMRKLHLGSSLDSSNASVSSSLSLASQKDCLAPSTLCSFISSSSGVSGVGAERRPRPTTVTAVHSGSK
Chain of Transcription initiation factor TFIID subunit 1-like (Homo sapiens) (Q8IZX4 whole entry): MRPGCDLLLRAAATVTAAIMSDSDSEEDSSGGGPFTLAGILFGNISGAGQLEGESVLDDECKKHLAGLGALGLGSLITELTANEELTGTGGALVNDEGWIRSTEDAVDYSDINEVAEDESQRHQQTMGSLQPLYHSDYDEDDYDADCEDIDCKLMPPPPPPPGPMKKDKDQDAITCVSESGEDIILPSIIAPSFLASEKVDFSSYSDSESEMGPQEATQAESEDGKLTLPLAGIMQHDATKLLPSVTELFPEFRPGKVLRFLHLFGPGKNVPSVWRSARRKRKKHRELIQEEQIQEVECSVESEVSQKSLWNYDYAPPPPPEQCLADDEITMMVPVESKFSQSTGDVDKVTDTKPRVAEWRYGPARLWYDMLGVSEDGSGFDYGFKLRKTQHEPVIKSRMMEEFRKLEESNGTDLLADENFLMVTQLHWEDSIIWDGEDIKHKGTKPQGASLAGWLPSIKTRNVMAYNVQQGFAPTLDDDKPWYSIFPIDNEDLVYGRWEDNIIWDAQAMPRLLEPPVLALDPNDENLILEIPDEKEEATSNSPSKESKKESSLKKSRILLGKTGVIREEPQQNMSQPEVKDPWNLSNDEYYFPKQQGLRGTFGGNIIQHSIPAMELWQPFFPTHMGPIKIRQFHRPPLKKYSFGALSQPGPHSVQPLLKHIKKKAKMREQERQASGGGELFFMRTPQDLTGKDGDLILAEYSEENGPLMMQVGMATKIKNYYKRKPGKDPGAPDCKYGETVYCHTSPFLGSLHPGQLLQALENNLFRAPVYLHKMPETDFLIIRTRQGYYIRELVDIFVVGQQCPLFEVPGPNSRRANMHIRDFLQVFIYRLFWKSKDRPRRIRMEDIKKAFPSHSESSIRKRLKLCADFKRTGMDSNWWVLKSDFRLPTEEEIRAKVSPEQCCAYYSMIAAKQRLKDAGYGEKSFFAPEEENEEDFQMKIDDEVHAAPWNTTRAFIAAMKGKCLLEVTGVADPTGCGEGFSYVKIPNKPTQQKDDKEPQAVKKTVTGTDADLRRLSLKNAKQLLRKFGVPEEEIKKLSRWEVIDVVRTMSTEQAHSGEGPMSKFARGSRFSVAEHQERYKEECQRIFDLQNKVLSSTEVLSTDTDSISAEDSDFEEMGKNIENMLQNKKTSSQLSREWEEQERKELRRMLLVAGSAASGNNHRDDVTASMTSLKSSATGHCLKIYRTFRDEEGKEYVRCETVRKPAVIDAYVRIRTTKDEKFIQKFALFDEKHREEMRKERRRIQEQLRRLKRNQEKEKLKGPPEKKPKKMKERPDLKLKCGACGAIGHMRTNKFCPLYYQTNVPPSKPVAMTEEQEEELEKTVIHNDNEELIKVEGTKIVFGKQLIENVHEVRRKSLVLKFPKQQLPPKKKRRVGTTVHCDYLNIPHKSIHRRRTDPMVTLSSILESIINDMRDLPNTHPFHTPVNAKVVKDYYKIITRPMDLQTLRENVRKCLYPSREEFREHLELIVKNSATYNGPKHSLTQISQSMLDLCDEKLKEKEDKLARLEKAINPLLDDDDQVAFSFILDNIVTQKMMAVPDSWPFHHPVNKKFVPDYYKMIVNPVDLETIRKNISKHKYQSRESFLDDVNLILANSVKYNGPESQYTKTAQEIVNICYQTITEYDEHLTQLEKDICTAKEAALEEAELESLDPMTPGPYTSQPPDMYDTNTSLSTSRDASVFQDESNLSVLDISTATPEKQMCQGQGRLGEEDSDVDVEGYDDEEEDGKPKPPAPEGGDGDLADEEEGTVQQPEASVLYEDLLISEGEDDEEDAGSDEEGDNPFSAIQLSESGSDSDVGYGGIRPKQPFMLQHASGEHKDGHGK

By inhibition is commonly meant the share of the control response that was lost under treatment. `CC(C)[C@H](NC(=O)c1cc(-c2cnn3cc(-c4ccc(OCCN5CCCCC5)cc4)cnc23)cs1)C(F)(F)F`: the inhibition in test [1] was determined as 0%; in test [3], 34%. Also, the fold change (FC) in test [2] amounted to 0.

With `O=C(N[C@@H](C1CC1)C(F)(F)F)c1cc(-c2cnn3cc(-c4ccc(F)cc4)cnc23)cs1`, the fold change (FC) in test [4] turned out to be 0.26.

On to `CNC(=O)c1ccccc1Oc1nc(Nc2cc(OC)c(OC)c(OC)c2)ncc1Br`, for which the inhibition in test [5] was 0%. In addition, the fold change (FC) in test [6] is 0.07; in [7], 0.04; in test [8], 0.03; in [9] it was 0.23.
